ChEMBL document CHEMBL1201862, “PubChem BioAssay data set” (2004)
Calls of active or inactive are those of the source.

Experiments:
[1] = Counterscreen for activators of the function of SWI/SNF related, matrix associated, actin dependent regulator of chromatin, subfamily a, member 2 (SMARCA2, BRM): Luminescence-based cell-based high throughput dose response assay to identify non-selective compounds using the VP16 reporter assay.; assay type: functional
[2] = target: SWI/SNF-related matrix-associated actin-dependent regulator of chromatin subfamily A member 2 (Homo sapiens, UniProt P51531); experiment: Luminescence-based cell-based high throughput dose response assay to identify activators of the function of SWI/SNF related, matrix associated, actin dependent regulator of chromatin, subfamily a, member 2 (SMARCA2, BRM).; assay type: functional
Sequence of SWI/SNF-related matrix-associated actin-dependent regulator of chromatin subfamily A member 2 (P51531 whole entry): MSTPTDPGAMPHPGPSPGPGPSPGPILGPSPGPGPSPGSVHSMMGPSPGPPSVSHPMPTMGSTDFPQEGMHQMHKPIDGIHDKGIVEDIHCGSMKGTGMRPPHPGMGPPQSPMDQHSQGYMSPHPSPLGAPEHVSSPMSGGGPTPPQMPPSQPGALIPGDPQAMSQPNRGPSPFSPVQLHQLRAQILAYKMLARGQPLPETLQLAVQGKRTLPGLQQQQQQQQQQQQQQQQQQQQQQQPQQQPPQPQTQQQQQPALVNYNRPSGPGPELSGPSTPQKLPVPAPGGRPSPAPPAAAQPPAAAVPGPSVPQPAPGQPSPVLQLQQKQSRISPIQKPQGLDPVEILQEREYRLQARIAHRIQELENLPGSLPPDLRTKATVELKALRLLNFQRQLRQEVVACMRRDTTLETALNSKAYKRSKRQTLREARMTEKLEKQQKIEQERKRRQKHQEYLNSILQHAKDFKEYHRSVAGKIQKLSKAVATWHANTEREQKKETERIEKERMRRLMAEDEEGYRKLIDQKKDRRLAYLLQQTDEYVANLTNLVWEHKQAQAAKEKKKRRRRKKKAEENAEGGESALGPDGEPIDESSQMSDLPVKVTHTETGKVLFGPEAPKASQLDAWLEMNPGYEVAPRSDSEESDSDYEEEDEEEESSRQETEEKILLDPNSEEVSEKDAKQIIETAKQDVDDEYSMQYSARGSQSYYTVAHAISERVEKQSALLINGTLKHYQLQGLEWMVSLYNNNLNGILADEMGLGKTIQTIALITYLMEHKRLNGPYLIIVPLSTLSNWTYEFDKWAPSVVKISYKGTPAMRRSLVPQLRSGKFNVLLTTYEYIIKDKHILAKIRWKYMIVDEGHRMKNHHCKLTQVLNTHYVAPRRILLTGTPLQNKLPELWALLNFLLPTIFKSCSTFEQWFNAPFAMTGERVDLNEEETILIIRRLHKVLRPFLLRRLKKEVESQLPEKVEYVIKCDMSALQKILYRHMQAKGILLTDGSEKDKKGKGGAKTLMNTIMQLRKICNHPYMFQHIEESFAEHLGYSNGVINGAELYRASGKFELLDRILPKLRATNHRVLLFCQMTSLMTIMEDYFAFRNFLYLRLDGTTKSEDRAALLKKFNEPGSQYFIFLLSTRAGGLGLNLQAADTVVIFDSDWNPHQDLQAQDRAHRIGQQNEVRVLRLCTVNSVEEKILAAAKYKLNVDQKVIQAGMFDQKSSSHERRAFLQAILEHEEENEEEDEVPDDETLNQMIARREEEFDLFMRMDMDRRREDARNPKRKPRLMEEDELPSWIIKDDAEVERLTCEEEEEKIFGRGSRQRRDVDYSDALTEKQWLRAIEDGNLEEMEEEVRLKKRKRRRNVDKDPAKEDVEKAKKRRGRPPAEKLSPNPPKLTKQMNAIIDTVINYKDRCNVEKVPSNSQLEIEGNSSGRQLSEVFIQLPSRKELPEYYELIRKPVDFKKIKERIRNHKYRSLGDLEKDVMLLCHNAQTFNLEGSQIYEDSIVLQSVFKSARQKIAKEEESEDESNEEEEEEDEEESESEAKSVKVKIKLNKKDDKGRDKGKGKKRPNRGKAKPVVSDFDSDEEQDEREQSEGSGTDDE

[3] = target: T1, Trace amine-associated receptor 1 (Homo sapiens, UniProt Q96RJ0); experiment: Counterscreen for agonists of the human trace amine associated receptor 1 (hTAAR1): Fluorescence-based cell-based high throughput dose response assay to identify hTAAR1 agonist that also desensitize TAAR1 receptor response.; assay type: functional
T1 sequence (Q96RJ0 whole entry): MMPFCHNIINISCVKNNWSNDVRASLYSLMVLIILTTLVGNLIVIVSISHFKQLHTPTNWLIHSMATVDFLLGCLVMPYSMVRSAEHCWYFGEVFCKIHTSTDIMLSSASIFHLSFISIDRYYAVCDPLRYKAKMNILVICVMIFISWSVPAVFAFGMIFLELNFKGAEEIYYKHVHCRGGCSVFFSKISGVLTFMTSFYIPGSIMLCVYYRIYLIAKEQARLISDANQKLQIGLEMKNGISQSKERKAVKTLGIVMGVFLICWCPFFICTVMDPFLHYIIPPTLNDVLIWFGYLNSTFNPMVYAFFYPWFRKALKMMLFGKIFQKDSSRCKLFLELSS

cells [4] = assay type: functional, cell-based
cells [5] = assay type: functional, cell-based; remark: listed apart in the source
[6] = target: T1, Trace amine-associated receptor 1; experiment: Fluorescence-based cell-based high throughput dose response assay to identify agonists of the human trace amine associated receptor 1 (TAAR1).; assay type: functional
[7] = Counterscreen for antagonists of the human trace amine associated receptor 1 (hTAAR1): Fluorescence-based cell-based high throughput dose response assay to identify nonselective Ga16 antagonists.; assay type: functional
[8] = Counterscreen for […] of the human trace amine associated receptor 1 (TAAR1): Fluorescence-based cell-based high throughput dose response assay to identify nonselective Ga16 agonists.; assay type: functional
[9] = target: T1, Trace amine-associated receptor 1; experiment: Counterscreen for antagonists of the human trace amine associated receptor 1 (hTAAR1): Fluorescence-based cell-based high throughput dose response assay to identify TAAR1 Agonists.; assay type: functional
[10] = target: T1, Trace amine-associated receptor 1; experiment: Fluorescence-based cell-based high throughput dose response assay to identify antagonists of the human trace amine associated receptor 1 (TAAR1).; assay type: functional
[11] = target: Photoreceptor-specific nuclear receptor (Homo sapiens, UniProt Q9Y5X4); assay type: functional, cell-based;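 also: CHO-S cells with Gal4-NCOR and VP16-NR2E3 two-hybrid luciferase reporter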
Sequence of Photoreceptor-specific nuclear receptor (Q9Y5X4 whole entry, the tested form may be a part): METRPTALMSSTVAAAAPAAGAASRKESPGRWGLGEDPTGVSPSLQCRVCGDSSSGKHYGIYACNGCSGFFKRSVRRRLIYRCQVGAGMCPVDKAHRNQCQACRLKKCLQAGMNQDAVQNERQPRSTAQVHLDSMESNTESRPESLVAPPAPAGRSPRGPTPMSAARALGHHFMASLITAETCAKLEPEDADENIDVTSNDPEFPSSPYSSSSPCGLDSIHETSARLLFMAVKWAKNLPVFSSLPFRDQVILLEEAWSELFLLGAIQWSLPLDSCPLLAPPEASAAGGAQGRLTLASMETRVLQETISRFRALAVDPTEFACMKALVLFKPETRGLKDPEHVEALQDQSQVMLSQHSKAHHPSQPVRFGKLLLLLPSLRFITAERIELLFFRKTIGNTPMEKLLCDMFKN

[12] = target: Glucose-6-phosphate 1-dehydrogenase (Homo sapiens, UniProt P11413); experiment: human G6PD enzyme inhibitors, dose response, selectivity assay for P. falciparum G6PD inhibitor project, biochemical, fluorescence (AID 504792); assay type: functional
Sequence of Glucose-6-phosphate 1-dehydrogenase (P11413 whole entry): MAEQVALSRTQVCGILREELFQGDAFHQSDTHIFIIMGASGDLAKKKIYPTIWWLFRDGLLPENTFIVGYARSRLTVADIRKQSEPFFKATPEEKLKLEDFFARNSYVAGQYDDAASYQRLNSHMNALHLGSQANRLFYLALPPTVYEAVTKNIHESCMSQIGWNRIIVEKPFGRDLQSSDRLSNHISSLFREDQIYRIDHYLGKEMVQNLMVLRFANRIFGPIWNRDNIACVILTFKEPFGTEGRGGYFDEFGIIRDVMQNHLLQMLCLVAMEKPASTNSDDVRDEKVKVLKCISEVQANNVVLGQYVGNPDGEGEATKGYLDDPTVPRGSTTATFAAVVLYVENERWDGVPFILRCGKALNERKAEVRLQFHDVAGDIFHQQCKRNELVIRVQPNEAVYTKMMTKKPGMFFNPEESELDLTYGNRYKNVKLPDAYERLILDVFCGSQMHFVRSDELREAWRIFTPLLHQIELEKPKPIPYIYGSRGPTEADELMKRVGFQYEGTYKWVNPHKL

[13] = Luminescence Cell-Based Dose Confirmation HTS to Identify Activators of 5'UTR Stem-Loop Driven Alpha-Synuclein mRNA Translation in H4 Neuroglioblastoma Cells. [Related pubchem assays: 1829 (Project Summary), 1814 (Primary HTS)]; assay type: functional
H4 = experiment: Luminescence Cell-Based Dose Response HTS to Identify Activators of 5'UTR Stem-Loop Driven Prion Protein mRNA Translation in H4 Neuroglioblastoma Cells. [Related pubchem assays: 1829 (Project Summary), 1814 (Primary HTS)]; assay type: functional; conditions: Homo sapiens
[14] = Luminescence Cell-Based Dose Response HTS to Identify Activators of Luciferase Translation or Activity in H4 […] Cells. [Related pubchem assays: 1829 (Project Summary), 1814 (Primary HTS)]; assay type: functional
Genome polyprotein = Genome polyprotein (dengue virus type 2, UniProt P29990); experiment: Dengue-2 NS5 methyltransferase inhibitors, primary screen, biochemical, confirmation dose response (AID 588689); assay type: functional
Sequence of Genome polyprotein (P29990 2492-3391 limits assumed): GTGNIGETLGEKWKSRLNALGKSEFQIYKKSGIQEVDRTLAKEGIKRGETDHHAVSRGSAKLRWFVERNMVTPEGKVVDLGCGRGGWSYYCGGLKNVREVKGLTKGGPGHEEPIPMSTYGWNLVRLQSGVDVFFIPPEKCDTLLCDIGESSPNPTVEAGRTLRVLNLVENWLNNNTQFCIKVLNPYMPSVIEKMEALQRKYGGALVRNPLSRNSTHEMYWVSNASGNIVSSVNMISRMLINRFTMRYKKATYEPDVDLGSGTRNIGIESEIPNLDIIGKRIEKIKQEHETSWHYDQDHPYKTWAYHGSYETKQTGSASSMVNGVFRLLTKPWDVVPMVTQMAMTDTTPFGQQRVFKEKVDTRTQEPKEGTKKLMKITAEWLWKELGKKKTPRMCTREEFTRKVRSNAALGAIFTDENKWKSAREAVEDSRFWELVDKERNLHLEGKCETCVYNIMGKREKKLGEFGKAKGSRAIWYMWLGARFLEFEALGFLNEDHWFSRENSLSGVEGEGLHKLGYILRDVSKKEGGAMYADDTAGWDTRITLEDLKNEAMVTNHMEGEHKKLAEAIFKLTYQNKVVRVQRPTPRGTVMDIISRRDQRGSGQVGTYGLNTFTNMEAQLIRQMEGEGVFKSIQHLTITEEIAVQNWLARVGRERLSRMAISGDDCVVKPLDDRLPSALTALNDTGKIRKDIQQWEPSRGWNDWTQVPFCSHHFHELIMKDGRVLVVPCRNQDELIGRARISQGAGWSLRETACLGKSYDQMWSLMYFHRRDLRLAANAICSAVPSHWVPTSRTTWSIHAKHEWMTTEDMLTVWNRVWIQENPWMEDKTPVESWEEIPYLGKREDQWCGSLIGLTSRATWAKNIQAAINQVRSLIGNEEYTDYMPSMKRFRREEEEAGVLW

Structure (SMILES): O=C(COC(=O)c1nc(Cl)c(Cl)c(Cl)c1Cl)NCc1ccccc1
- EC50 [1]: > 91.1 µM (inactive)
- EC50 [2]: > 91.1 µM (inactive)

Structure (SMILES): CCOC(=O)[C@]12CCC=C1N(Cc1ccc3c(c1)OCO3)C(=O)[C@H](CC(=O)NCCc1ccccc1OC)C2
- IC50 [3]: 6.46 µM (active)
- EC50 (cells [4]): > 29.9 µM (inactive)
- IC50 (cells [5]): > 29.9 µM (inactive)
- EC50 [6]: 7.51 µM (active)

Structure (SMILES): COc1cc(NC(=O)c2cc3ccccc3o2)c(OC)cc1Cl
- IC50 [7]: > 29.9 µM (inactive)
- EC50 [8]: > 29.9 µM (inactive)
- EC50 [9]: > 29.9 µM (inactive)
- IC50 [10]: 3.98 µM (active)

Structure (SMILES): CC(C)c1cc2c(c(O)c1O)[C@@]13CCCC(C)(C)C1CC2OC3=O (stereo not given in full)
- IC50 [11]: 2.59 µM (active)
- IC50 [12]: > 80 µM (inactive)
- EC50 [13]: 71.2 µM (active)
- EC50 (H4): > 120 µM (not active)
- EC50 [14]: > 60 µM (not active)
- IC50 (Genome polyprotein): 84.4 µM (active)

Structure (SMILES): COc1ccc(-c2c(C#Cc3ccsc3)c3cc(-c4ccc(C(N)=O)cc4)ccc3n2C)cc1
- IC50 [7]: > 29.9 µM (inactive)
- EC50 [8]: > 29.9 µM (inactive)
- EC50 [9]: > 29.9 µM (inactive)
- IC50 [10]: 0.233 µM (active)
